This note sets out measurements from patent publication US4812465A, “Triazole derivatives for use as antimycotic agents” (CL Pharma Aktiengesellschaft, priority 1986, dated 1989).

Common to all, as to assay: In vitro determination of minimum inhibitory concentration (MIC), serial dilution
What all share (format): cell-based

The subject of data set [1] is Absidia ramosa. As to conditions: Lichtheimia ramosa, 336 h, pH 6, Absidia ramosa; pH 6.0, 22° C., 14 days. How it is done: (§1) The antimycotic activities of the compounds were measured by in vitro determination of the minimum inhibitory concentration (MIC) for yeasts, molds and dermatophytes.
(§2) 6 dermatophytes, 2 yeasts and 4 molds were used for testing with fungi, as follows:
(§3) The minimum inhibitory concentration (MIC) was determined in serial dilution tests in test tubes. The volume of the liquid nutrient medium in each test tube was 4.5 ml.
(§4) The substances were dissolved in DMSO and diluted with sterile distilled water to 10 concentrations (100, 50, 25, 12.5, 6.25, 3.12, 1.56, 0.78, 0.39 and 0.19 μg/ml). 0.5 ml of each of these dilution steps was added to liquid nutrient medium. Thus, a constant concentration of solvent in all the nutrient media was ensured, irrespective of the active compound concentration.
(§5) A comparison solution which contained only the solvent in appropriate concentration was included when carrying out each of the tests.
(§6) The individual strains were maintained on Sabouraud/beerwort agar slants and, before they were used in a test, they underwent a passage on a modified Sabouraud liquid nutrient medium. The strains were then harvested, washed and converted into a suspension of McFaerland 3 in the case of yeasts and molds and of McFaerland 4-5 in the case of dermatophytes.
(§7) The amount of material inoculated (inoculum) was 100 μl/test tube (inoculated densities: yeasts about 10^3 /ml, molds about 10^4 /ml, dermatophytes about 10^4 /ml). The pH of the liquid nutrient medium was 6.0. After inoculation had taken place the fungi were incubated at 22° C. for 14 days.
(§8) The MIC was then determined. The concentration step at which growth was no longer visible on macroscopic inspection was used for the determination of the MIC. The comparison substance used was 1-(2-(2,4-dichlorophenyl)-2-(2,4-dichlorophenylmethoxy)ethyl)-1H-imidazole(compound A).

For data set [2], the system named is Aspergillus fumigatus. As to conditions: 20160 min, pH 6. How it is done: as §1, §2, §3, §4, §5, §6, §7, §8
Data set [3] relates to Candida albicans. As to conditions: 336 h, pH 6, Candida albicans, pH 6.0, 22° C., 14 days, read-out: MIC C.alb. The method, then:
as §1, §2, §3, §4, §5, §6, §7, §8

Data set [4] deals with Candida tropicalis. As to conditions: 336 h, pH 6, Candida tropicalis, pH 6.0, 22° C., 14 days, read-out: MIC C.trop. How it is done:
as §1, §2, §3, §4, §5, §6, §7, §8

Data set [5] concerns Epidermophyton floccosum. As to conditions: 336 h, pH 6, Epidermophyton floccosum, pH 6.0, 22° C., 14 days. The method, then: as §1, §2, §3, §4, §5, §6, §7, §8
Data set [6] deals with Microsporum canis. The conditions noted are these: 336 h, pH 6, Microsporum canis, pH 6.0, 22° C., 14 days. The method, then: as §1, §2, §3, §4, §5, §6, §7, §8
In data set [7] the test system is Microsporum gypseum. As to conditions: Nannizzia gypsea, 336 h, pH 6, Microsporum gypseum; pH 6.0, 22° C., 14 days; read-out: MIC Mi.gyp. How it is done:
as §1, §2, §3, §4, §5, §6, §7, §8

For data set [8], the system named is Mucor mucedo minus. The conditions noted are these: Mucor mucedo, 336 h, pH 6, Mucor mucedo minus; pH 6.0, 22° C., 14 days. How it is done: as §1, §2, §3, §4, §5, §6, §7, §8
For data set [9], the system named is Mucor mucedo plus. The conditions noted are these: Mucor mucedo, 336 h, pH 6, Mucor mucedo plus; pH 6.0, 22° C., 14 days. The method, then:
as §1, §2, §3, §4, §5, §6, §7, §8

For data set [10], the system named is Trichophyton mentagrophytes. The conditions noted are these: 336 h, pH 6, Trichophyton mentagrophytes, pH 6.0, 22° C., 14 days. The method, then: as §1, §2, §3, §4, §5, §6, §7, §8
Data set [11] has as its system Trichophyton rubrum. The conditions noted are these: 336 h, pH 6, Trichophyton rubrum, pH 6.0, 22° C., 14 days. The method, then:
as §1, §2, §3, §4, §5, §6, §7, §8

The subject of data set [12] is Trichophyton verrucosum. The conditions noted are these: 336 h, pH 6, Trichophyton verrucosum, pH 6.0, 22° C., 14 days. How it is done:
as §1, §2, §3, §4, §5, §6, §7, §8

Structures are written as SMILES. Values after ≈ are worked out from the molar mass of the structure shown.

Regarding `CN(CCCSCc1ccc(Cl)cc1)C(Cn1ccnc1)c1ccc(Cl)cc1Cl` (stereo not drawn) [Compound 3, 1-(2-(2,4-Dichlorophenyl)-2-(N-methyl-3-(4-chlorobenzylthio)propylamino)ethyl)-1H-imidazole], the MIC in data set [1] was 50 µg/mL (≈ 107 µM); in data set [3], 3.12 µg/mL (≈ 6.65 µM); in data set [4], 0.78 µg/mL (≈ 1.66 µM); in data set [5], 1.56 µg/mL (≈ 3.33 µM); in data set [6] it was 1.56 µg/mL (≈ 3.33 µM); in data set [7], 6.25 µg/mL (≈ 13.3 µM). In addition, the MIC is 6.25 µg/mL (≈ 13.3 µM) in [8]; 6.25 µg/mL in data set [9]; 6.25 µg/mL (≈ 13.3 µM) in data set [10]; 6.25 µg/mL (≈ 13.3 µM) in data set [11]; 6.25 µg/mL (≈ 13.3 µM) in [12]. In data set [2], the “MIC Asp.fu.” value is 25,0 μg/ml.
Consider `CN(CCCOc1ccc(I)cc1)C(Cn1ccnc1)c1ccc(Cl)cc1Cl` (stereo not drawn) [Compound 65], for which the MIC in data set [1] stood at 3.12 µg/mL (≈ 5.88 µM); in data set [3], 3.12 µg/mL (≈ 5.88 µM); in data set [4] it was 1.56 µg/mL (≈ 2.94 µM); in data set [5], 3.12 µg/mL (≈ 5.88 µM); in [6] it was 1.56 µg/mL (≈ 2.94 µM); in data set [7] it was 3.12 µg/mL (≈ 5.88 µM). Further, the MIC in data set [8] was determined as 6.25 µg/mL (≈ 11.8 µM); in data set [9], 6.25 µg/mL; in data set [10] it was 6.25 µg/mL (≈ 11.8 µM); in [11], 0.78 µg/mL (≈ 1.47 µM); in data set [12] it was 1.56 µg/mL (≈ 2.94 µM). In addition, the “MIC Asp.fu.” value in data set [2] is given as 3,12 μg/ml.
In the case of `Clc1ccc(C(Cn2ccnc2)NCCCSc2ccc3ccccc3c2)c(Cl)c1` (stereo not drawn) [Compound 114], the MIC in data set [1] stood at 6.25 µg/mL (≈ 13.7 µM); in [3], 3.12 µg/mL (≈ 6.84 µM); in data set [4], 6.25 µg/mL (≈ 13.7 µM); in data set [5], 3.12 µg/mL (≈ 6.84 µM); in data set [6], 0.78 µg/mL (≈ 1.71 µM); in [7], 3.12 µg/mL (≈ 6.84 µM). In addition, the MIC came out at 3.12 µg/mL (≈ 6.84 µM) in data set [8]; 6.25 µg/mL in data set [9]; 3.12 µg/mL (≈ 6.84 µM) in [10]; 1.56 µg/mL (≈ 3.42 µM) in data set [11]; 1.56 µg/mL (≈ 3.42 µM) in data set [12]. Also, the “MIC Asp.fu.” value in data set [2] is recorded as 0,78 μg/ml.
Consider `Cc1ccc(SCCCNC(Cn2ccnc2)c2ccc(Cl)cc2Cl)cc1` (stereo not drawn) [Compound 92], for which the MIC amounted to 6.25 µg/mL (≈ 14.9 µM) in data set [1]; 12.5 µg/mL (≈ 29.7 µM) in data set [3]; 12.5 µg/mL (≈ 29.7 µM) in data set [4]; 0.78 µg/mL (≈ 1.86 µM) in data set [5]; 3.12 µg/mL (≈ 7.42 µM) in data set [6]; 0.78 µg/mL (≈ 1.86 µM) in [7]. Further, the MIC was determined as 3.12 µg/mL (≈ 7.42 µM) in data set [8]; 0.78 µg/mL in data set [9]; 0.78 µg/mL (≈ 1.86 µM) in [10]; 0.78 µg/mL (≈ 1.86 µM) in data set [11]; 0.78 µg/mL (≈ 1.86 µM) in data set [12]. The “MIC Asp.fu.” value in [2] was 0,78 μg/ml.
As for `Clc1ccc(C(Cn2cncn2)NCCSc2ccc(Br)cc2)c(Cl)c1` (stereo not drawn) [Compound 36], the MIC amounted to 100 µg/mL (≈ 212 µM) in [1]; 25 µg/mL (≈ 52.9 µM) in data set [3]; 12.5 µg/mL (≈ 26.5 µM) in data set [4]; 12.5 µg/mL (≈ 26.5 µM) in data set [5]; 100 µg/mL (≈ 212 µM) in data set [6]; 6.25 µg/mL (≈ 13.2 µM) in [7]. Also, the MIC in data set [8] turned out to be 50 µg/mL (≈ 106 µM); in data set [9], 12.5 µg/mL; in data set [10], 25 µg/mL (≈ 52.9 µM); in [11] it was 6.25 µg/mL (≈ 13.2 µM); in [12], 12.5 µg/mL (≈ 26.5 µM). Also, the “MIC Asp.fu.” value in data set [2] was determined as 100 µg/mL (≈ 212 µM).
With `Clc1ccc(C(Cn2cncn2)NCCCSc2ccc(Br)cc2)c(Cl)c1` (stereo not drawn) [Compound 104], the MIC in data set [1] came out at 100 µg/mL (≈ 206 µM); in data set [3] it was 25 µg/mL (≈ 51.4 µM); in data set [4] it was 12.5 µg/mL (≈ 25.7 µM); in [5] it was 12.5 µg/mL (≈ 25.7 µM); in data set [6], 100 µg/mL (≈ 206 µM); in data set [7], 6.25 µg/mL (≈ 12.9 µM). For the same compound, the MIC in data set [8] was 50 µg/mL (≈ 103 µM); in data set [9], 12.5 µg/mL; in [10], 25 µg/mL (≈ 51.4 µM); in [11] it was 6.25 µg/mL (≈ 12.9 µM); in [12], 12.5 µg/mL (≈ 25.7 µM). Besides, the “MIC Asp.fu.” value in [2] came out at 100 µg/mL (≈ 206 µM).
`Fc1ccc(OCCCNC(Cn2ccnc2)c2ccc(Cl)cc2Cl)cc1` (stereo not drawn) [Compound 56]: the MIC is 6.25 µg/mL (≈ 15.3 µM) in data set [1]; 12.5 µg/mL (≈ 30.6 µM) in [3]; 3.12 µg/mL (≈ 7.64 µM) in data set [4]; 6.25 µg/mL (≈ 15.3 µM) in data set [5]; 12.5 µg/mL (≈ 30.6 µM) in data set [6]; 3.12 µg/mL (≈ 7.64 µM) in [7]. The MIC amounted to 0.78 µg/mL (≈ 1.91 µM) in [8]; 1.56 µg/mL in data set [9]; 3.12 µg/mL (≈ 7.64 µM) in data set [10]; 1.56 µg/mL (≈ 3.82 µM) in data set [11]; 1.56 µg/mL (≈ 3.82 µM) in data set [12]. Moreover, in data set [2], the “MIC Asp.fu.” value is listed as 0,78 μg/ml.

The term MIC denotes the smallest concentration in the dilution series that meets the test's criterion for growth inhibition.
